Results reported in publication PMC7515950, “Physiologically based pharmacokinetic modeling to assess metabolic drug–drug interaction risks and inform the drug label for fedratinib” (Cancer Chemotherapy and Pharmacology, 2020).
Where “and” joins values, the source holds several entries; their conditions need not be identical. Equal values may be shown once. Read-outs that look alike come from different tables or passages of the source.

Experiments:
[1] = test system: cryopreserved human hepatocytes; experiment: Contribution of metabolic enzymes in cryopreserved human hepatocytes (MIH0888); format: in vitro ADME; settings: 1 µM fedratinib
[2] = In vitro binding to human plasma proteins (Study LPR1082); format: in vitro ADME; settings: mainly bound to α1-acid glycoprotein, read-out: fu (unbound fraction in plasma)
Description: (§1) The physicochemical properties and blood binding parameters of fedratinib including molecular weight, logP, pKa, fu, and B/P were experimentally measured and listed in Table 1.

[3] = cited from earlier work
CYP2D6 = molecular target: T1, CYP2D6 (Homo sapiens, UniProt P10635); experiment: CYP inhibition in human liver microsomes (MIH0887), CYP2D6; format: in vitro ADME; settings: HLM, apparent Ki, reversible inhibition
T1 construct: from tissue; host or cells: human liver microsomes
Method: (§2) The CYP enzyme reverse inhibition and mechanism-based inhibition (MBI) parameters were estimated in the human liver microsome (HLM) incubation in vitro studies. The reported reversible inhibition parameter (i.e., apparent Ki) values for CYP2C8, CYP2C9, and CYP2D6, along with the MBI parameters (i.e., KI or Kapp and kinact) for CYP2C19 and CYP3A4, were supplied to the PBPK DDI model (see Table 2).

CYP2C19 = molecular target: T2, CYP2C19 (Homo sapiens, UniProt P33261); experiment: CYP mechanism-based inhibition in human liver microsomes (MIH0887), CYP2C19; format: in vitro ADME; settings: HLM
T2 construct: from tissue; host or cells: human liver microsomes
Method: as §2

[4] = Compartmental PK modeling of single-dose 500 mg data in healthy volunteers; format: in vivo, human
Description: The PBPK model of fedratinib was constructed in Simcyp® by integrating available in vitro and in vivo information, including physiochemical parameters, permeability and blood binding parameters, enzyme and transporter inhibition parameters, and human PK parameters estimated from clinical PK data. A stepwise “middle-out” approach was applied to estimate the human PBPK parameters for fedratinib in Simcyp®. First, the temporal profiles of mean plasma concentration of fedratinib were collected from the clinical studies in healthy volunteers (HVs) administered single doses of 500 mg fedratinib. Then the preliminary human oral PK parameters were estimated as described in Supplemental Materials SM2 and SM3.
The minimal PBPK model within Simcyp® was used to describe the distribution of fedratinib. The Vss, Vsac, and Q values were estimated using the compartmental PK modeling approach (see Table 3 in Supplemental Material SM 3) and further refined within Simcyp® based on the model-predicted bioavailability (F) using the following equations: […]
The estimated values of Vss, Vsac, and Q were directly supplied to the Distribution module within Simcyp® without further modifications. Note that since the intravenous (IV) PK data are not available in humans for fedratinib, the distribution parameters include Vss estimated from the oral human PK data may not be accurate and will be subject to further verification if the human IV PK data of fedratinib or other relevant clinical information are available in the future.
The temporal profiles of mean plasma concentration of fedratinib were collected from the clinical studies (TDU12620, BDR12462, FED12258, and ALI13451) conducted in healthy volunteers (HVs) administered with single doses of 500 mg fedratinib. The compartmental PK modeling was conducted in Phoenix®/NLME (V7, Certara, Princeton, NJ). A two-compartment PK structural model with the additive error model was identified to successfully describe the PK data. The “naïve pooled” algorithm provided in Phoenix was used for parameter estimation.

CYP2C9 = molecular target: T3, CYP2C9 (Homo sapiens, UniProt P11712); experiment: CYP inhibition in human liver microsomes (MIH0887), CYP2C9; format: in vitro ADME; settings: HLM, apparent Ki, reversible inhibition
T3 construct: from tissue; host or cells: human liver microsomes
Method: as §2

Caco-2/TC7 = Caco-2/TC7 permeability (Study AIV0208); format: in vitro ADME, human; settings: Apical pH:Basolateral pH 7.4:7.4; Simcyp input
Description: (§3) By default, the QGut is set to be the mean value (i.e., 6.5 L/h) in the PBPK model of fedratinib.

[5] = Caco-2/TC7 permeability (Study AIV0208); format: in vitro ADME, human; settings: human, Caco-2
Description: as §3

[6] = Physicochemical properties (Study QUA-PG-2011-20593); settings: for pKa: free form is a diprotic base
Description: as §1

[7] = healthy subjects, cited from earlier work; for AUC (AUCinf) / Cmax: observation, ref Study TDU12620/INT12894
[8] = 300 mg QD, MF patients, Day 1, observation, GM
[9] = 300 mg QD, MF patients, Day 1, observation, Mean (SD)
[10] = 300 mg QD, MF patients, steady state, observation, GM
[11] = 300 mg QD, MF patients, steady state, observation, Mean (SD)
[12] = 400 mg QD, MF patients, Day 1, observation, GM
[13] = 400 mg QD, MF patients, Day 1, observation, Mean (SD)
[14] = 400 mg QD, MF patients, steady state, observation, GM
[15] = 400 mg QD, MF patients, steady state, observation, Mean (SD)
[16] = 500 mg QD, MF patients, Day 1, observation, GM
[17] = 500 mg QD, MF patients, Day 1, observation, Mean (SD)
[18] = 500 mg QD, MF patients, steady state, observation, GM
[19] = 500 mg QD, MF patients, steady state, observation, Mean (SD)
[20] = clinical observation in MF patients
[21] = healthy subjects, single doses of 500 mg, two-compartment model

T2 sequence (P33261 whole entry): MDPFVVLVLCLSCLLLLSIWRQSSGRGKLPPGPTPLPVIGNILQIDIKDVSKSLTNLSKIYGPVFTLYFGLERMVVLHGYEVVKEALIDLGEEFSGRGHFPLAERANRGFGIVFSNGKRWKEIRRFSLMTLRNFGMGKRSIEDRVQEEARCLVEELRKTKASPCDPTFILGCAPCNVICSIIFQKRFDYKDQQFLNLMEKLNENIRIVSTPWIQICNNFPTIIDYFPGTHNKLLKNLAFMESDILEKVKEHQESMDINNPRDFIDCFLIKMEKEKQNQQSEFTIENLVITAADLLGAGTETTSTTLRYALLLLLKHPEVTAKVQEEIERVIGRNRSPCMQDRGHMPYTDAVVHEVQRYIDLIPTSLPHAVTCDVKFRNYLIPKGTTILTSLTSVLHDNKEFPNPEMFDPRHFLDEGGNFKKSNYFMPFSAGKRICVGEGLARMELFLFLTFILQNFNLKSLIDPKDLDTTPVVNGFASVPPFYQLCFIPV
T1 sequence (P10635 whole entry): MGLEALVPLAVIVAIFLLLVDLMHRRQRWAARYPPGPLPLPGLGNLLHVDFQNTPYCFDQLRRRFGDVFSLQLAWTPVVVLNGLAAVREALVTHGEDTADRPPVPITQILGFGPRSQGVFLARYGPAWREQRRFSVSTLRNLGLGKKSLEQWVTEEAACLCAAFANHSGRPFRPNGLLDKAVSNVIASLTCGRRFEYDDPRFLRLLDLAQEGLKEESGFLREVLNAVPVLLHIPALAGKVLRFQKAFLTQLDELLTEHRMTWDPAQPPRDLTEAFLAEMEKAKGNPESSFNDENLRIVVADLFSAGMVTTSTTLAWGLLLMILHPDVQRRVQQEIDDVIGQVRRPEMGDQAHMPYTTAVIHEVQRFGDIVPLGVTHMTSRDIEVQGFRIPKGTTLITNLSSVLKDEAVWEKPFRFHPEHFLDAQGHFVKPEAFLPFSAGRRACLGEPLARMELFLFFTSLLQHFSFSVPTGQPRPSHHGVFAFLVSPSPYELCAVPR
T3 sequence (P11712 whole entry): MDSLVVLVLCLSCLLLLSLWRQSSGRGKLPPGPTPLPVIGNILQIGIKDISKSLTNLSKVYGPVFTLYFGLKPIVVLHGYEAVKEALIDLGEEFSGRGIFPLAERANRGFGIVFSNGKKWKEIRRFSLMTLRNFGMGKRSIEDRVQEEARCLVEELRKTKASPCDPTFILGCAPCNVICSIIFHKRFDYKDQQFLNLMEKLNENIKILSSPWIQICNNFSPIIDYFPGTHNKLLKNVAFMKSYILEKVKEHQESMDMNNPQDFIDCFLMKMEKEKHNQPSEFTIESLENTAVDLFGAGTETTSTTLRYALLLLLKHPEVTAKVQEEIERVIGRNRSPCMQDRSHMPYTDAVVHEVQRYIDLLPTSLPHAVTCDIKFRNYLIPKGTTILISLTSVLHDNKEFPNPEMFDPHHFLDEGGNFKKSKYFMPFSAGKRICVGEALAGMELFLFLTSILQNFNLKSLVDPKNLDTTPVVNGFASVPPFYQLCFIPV

hepatic metabolic clearance percentage, CYP2C19 [1]: 17% and ~ 17%
hepatic metabolic clearance percentage, CYP2D6 [1]: 2% and ~ 2%
hepatic metabolic clearance percentage, CYP3A [1]: 63% and ~ 63%
metabolic contribution to hepatic clearance, other liver enzymes [1]: ~ 18%
fraction unbound [2]: 0.05
Ki (CYP2D6): 10.1 µM
CYP2C19 KI or Kapp (CYP2C19): 112 µM
CYP2C19 KI or Kapp (CYP2C19; listed as fedratinib): 112.000 µM
kinact (CYP2C19; human, human liver microsomes): 0.000558 s⁻¹
ka ([4]; Simcyp input): 0.220 h⁻¹
Q (inter-compartment clearance) ([4]; from compartmental modeling, assuming F ~0.36): ~ 11 L/h
ka (first-order absorption constant) ([4]; healthy subjects, single doses of 500 mg): 0.22 h⁻¹ and 0.221 h⁻¹
CL2/F [4, 21]: 30.8 L/h
CL/F [4, 21]: 27.2 L/h
V2/F [4, 21]: 797 L
V/F [4, 21]: 107 L
ka (first-order absorption constant) ([4]; healthy subjects, single doses of 500 mg, listed as fedratinib): ~ 0.22 h^-1
Ki (CYP2C9): 26.1 µM
PCaco-2 (Caco-2/TC7): 17.800 10E-06 cm/s
Papp at 40 μM ([5]; Apical pH:Basolateral pH 6.5:7.4, 40 μM fedratinib): 0.21 ×10⁻⁶ cm/s
Papp at 100 μM ([5]; Apical pH:Basolateral pH 7.4:7.4, 100 μM fedratinib): 17.8 ×10⁻⁶ cm/s
LogPo:w ([6]; Study QUA-PG-2011-20593): 3.500
logP ([6]; octanol/water, Study QUA-PG-2011-20593): 3.5
pKa ([6]; pKa1 (base)): 6.4
pKa ([6]; pKa2 (base)): 9.6
Compound: Cc1cnc(Nc2ccc(OCCN3CCCC3)cc2)nc1Nc1cccc(S(=O)(=O)NC(C)(C)C)c1 [Fedratinib]
AUC (AUCτ) [3, 8]: 7020 ng·h/mL
Cmax [3, 8]: 1070 ng/mL
AUC (AUCτ) [3, 9]: 9460 (7770) ng/mL·h
Cmax [3, 9]: 1380 (1060) ng/mL
AUC (AUCτ) [3, 10]: 22400 ng·h/mL
Cmax [3, 10]: 1530 ng/mL
AUC (AUCτ) [3, 11]: 25300 (14100) ng/mL·h
Cmax [3, 11]: 1800 (1120) ng/mL
AUC (AUCτ) [3, 12]: 9130 ng·h/mL
Cmax [3, 12]: 1290 ng/mL
AUC (AUCτ) [3, 13]: 9610 (3450) ng/mL·h
Cmax [3, 13]: 1430 (754) ng/mL
AUC (AUCτ) [3, 14]: 26900 ng·h/mL
Cmax [3, 14]: 1800 ng/mL
AUC (AUCτ) [3, 15]: 29100 (13500) ng/mL·h
Cmax [3, 15]: 2020 (1250) ng/mL
AUC (AUCτ) [3, 16]: 9980 ng·h/mL
Cmax [3, 16]: 1270 ng/mL
AUC (AUCτ) [3, 17]: 11300 (6060) ng/mL·h
Cmax [3, 17]: 1420 (710) ng/mL
AUC (AUCτ) [3, 18]: 38700 ng·h/mL
Cmax [3, 18]: 2540 ng/mL
AUC (AUCτ) [3, 19]: 44500 (24900) ng/mL·h
Cmax [3, 19]: 2830 (1370) ng/mL
accumulation ratio, AUC ([3]; Study ARD11936 500 mg QD, MF patients, observed): 3.9
accumulation ratio, AUC [3, 20]: 2.9–3.2
accumulation ratio, Cmax [3, 20]: 1.4–2.0
Vsac ([4]; from compartmental modeling, assuming F ~0.36 and body weight ~81 kg): 3.5 L/kg
Vsac ([4]; from compartmental modeling, assuming F ~0.36 and body weight ~81 kg, listed as fedratinib): 3.5 L/kg
Vd ([4]; human, plasma, oral, 500 mg, from compartmental modeling, assuming F ~0.36 and body weight ~81 kg, read-out: Vss): ~4.1 L/kg
AUC (AUCinf) ([7]; 300 mg single dose, GM): 6530 ng·h/mL
Cmax ([7]; 300 mg single dose, GM): 497 ng/mL
AUC (AUCinf) ([7]; 300 mg single dose, Mean (SD)): 6730 (1990) ng/mL·h
Cmax ([7]; 300 mg single dose, Mean (SD)): 521 (189) ng/mL
AUC (AUCinf) ([7]; 500 mg single dose, GM): 13200 ng·h/mL
Cmax ([7]; 500 mg single dose, GM): 683 ng/mL
AUC (AUCinf) ([7]; 500 mg single dose, Mean (SD)): 13900 (5240) ng/mL·h
Cmax ([7]; 500 mg single dose, Mean (SD)): 720 (243) ng/mL
dose-normalized AUC ([7]; single doses above 100 mg, ref [3]): 30 ng·h/mL/mg
